Laboratory results published in ChEMBL document CHEMBL3351486 (Bioorg Med Chem Lett, 2014).
The source made the active and inactive calls. The calls are words filed in the database; no cut-off is given here.

Tests used:
[1] = Cytotoxicity against Remb1 cells (unknown origin) assessed as cell killing after 24 hrs by MTT assay; format: functional, cell-based; details: Remb1, 24 h
[2] = Cytotoxicity against BL2/B95 cells (unknown origin) assessed as cell killing after 24 hrs by MTT assay; format: functional, cell-based; details: BL2/B95, 24 h
[3] = Cytotoxicity against BL2 cells (unknown origin) assessed as cell killing after 24 hrs by MTT assay; format: functional, cell-based; details: BL2, 24 h
[4] = Cytotoxicity against Remb1 cells (unknown origin) assessed as cell killing at 10 uM after 24 hrs by MTT assay; format: functional
[5] = Induction of apoptosis in BL2/B95 cells (unknown origin) at 7.5 uM after 24 hrs by Annexin V/propidium iodide staining-based flow cytometric analysis; format: functional
[6] = Induction of apoptosis in Remb1 cells (unknown origin) at 7.5 uM after 24 hrs by Annexin V/propidium iodide staining-based flow cytometric analysis; format: functional
Remb1 = assay: Induction of apoptosis in Remb1 cells (unknown origin) assessed as PARP cleavage at 7.5 uM after 24 hrs by Western blot analysis; format: functional, cell-based
[7] = Cytotoxicity against BL2/B95 cells (unknown origin) assessed as cell killing at 10 uM after 24 hrs by MTT assay; format: functional
[8] = Cytotoxicity against BL2 cells (unknown origin) assessed as cell killing at 10 uM after 24 hrs by MTT assay; format: functional
BL2/B95 = assay: Induction of apoptosis in BL2/B95 cells (unknown origin) assessed as PARP cleavage at 7.5 uM after 24 hrs by Western blot analysis; format: functional, cell-based
[9] = Induction of apoptosis in BL2 cells (unknown origin) at 7.5 uM after 24 hrs by Annexin V/propidium iodide staining-based flow cytometric analysis; format: functional
Bcl-xL/BAK = Bcl-xL/BAK (Homo sapiens, UniProt Q07817); assay: Inhibition of Bcl-xL/Bak (unknown origin) interaction; format: protein assay
Sequence of Bcl-xL/BAK (Q07817 whole entry, the tested form may be a part): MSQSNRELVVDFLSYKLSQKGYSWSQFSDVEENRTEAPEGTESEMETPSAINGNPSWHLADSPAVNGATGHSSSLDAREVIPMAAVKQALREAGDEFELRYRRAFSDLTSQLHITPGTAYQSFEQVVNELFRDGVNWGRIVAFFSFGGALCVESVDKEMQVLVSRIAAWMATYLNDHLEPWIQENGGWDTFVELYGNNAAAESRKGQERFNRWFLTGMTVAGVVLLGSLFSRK
Sequence of Bcl-xL/BAK (Q16611 whole entry, further chain, the tested form may be a part): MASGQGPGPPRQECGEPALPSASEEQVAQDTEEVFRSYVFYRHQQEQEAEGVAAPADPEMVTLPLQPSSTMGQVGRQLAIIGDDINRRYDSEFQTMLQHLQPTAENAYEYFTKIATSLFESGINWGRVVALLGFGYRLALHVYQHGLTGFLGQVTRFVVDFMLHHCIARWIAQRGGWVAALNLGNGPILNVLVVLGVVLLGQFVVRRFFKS

[10] = target: Induced myeloid leukemia cell differentiation protein Mcl-1/BH3-interacting domain death agonist (Homo sapiens, UniProt Q07820); assay: Inhibition of Mcl1/Bid (unknown origin) interaction; format: protein assay
Sequence of Induced myeloid leukemia cell differentiation protein Mcl-1/BH3-interacting domain death agonist (Q07820 whole entry, the tested form may be a part): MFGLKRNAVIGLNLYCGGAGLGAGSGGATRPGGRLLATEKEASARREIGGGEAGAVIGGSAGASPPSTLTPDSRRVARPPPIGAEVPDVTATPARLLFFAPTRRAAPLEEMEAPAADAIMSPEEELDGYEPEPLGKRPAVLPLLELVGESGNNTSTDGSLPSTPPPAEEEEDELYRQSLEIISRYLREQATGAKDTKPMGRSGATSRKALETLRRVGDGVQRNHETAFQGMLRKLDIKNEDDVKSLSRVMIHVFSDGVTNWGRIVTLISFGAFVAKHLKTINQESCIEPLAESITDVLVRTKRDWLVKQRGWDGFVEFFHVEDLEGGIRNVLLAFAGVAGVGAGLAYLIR
Sequence of Induced myeloid leukemia cell differentiation protein Mcl-1/BH3-interacting domain death agonist (P55957 whole entry, further chain, the tested form may be a part): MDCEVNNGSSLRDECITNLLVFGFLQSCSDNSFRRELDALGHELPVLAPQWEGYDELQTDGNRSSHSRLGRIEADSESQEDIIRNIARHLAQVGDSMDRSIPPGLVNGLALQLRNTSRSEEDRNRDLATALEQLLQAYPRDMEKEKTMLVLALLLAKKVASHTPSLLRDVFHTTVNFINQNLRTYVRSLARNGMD

BL2 = assay: Induction of apoptosis in BL2 cells (unknown origin) assessed as PARP cleavage at 7.5 uM after 24 hrs by Western blot analysis; format: functional, cell-based

Compound CC(C)=CCC[C@H](C)[C@H]1C=C[C@@]2(C(=O)O)[C@H](CC(C)=C[C@@H]2/C=C(\C)[C@H]2CC[C@H](C(=O)O)CC2)C1 has an IC50 [1] of over 20 µM, an IC50 [2] of over 20 µM and an IC50 [3] of over 20 µM.
For CC(C)=CCC[C@@H](C)[C@@H]1C=C[C@]2(C(=O)O)[C@@H](CC(C)=C[C@H]2/C=C(\C)c2ccc(C(=O)O)cc2)C1, the IC50 [1] was 8.6 µM, the Activity [4] was over 50% and the Activity [5] was 52%. For the same compound, the Activity [6] was 54%, the Activity (Remb1) was “Active” and the Activity [7] was over 50%. For the same compound, the IC50 [2] was 8.6 µM, the Activity [8] was over 50% and the Activity (BL2/B95) was “Active”. For the same compound, the Activity [9] was 71%, the IC50 [3] was 8.5 µM and the Ki (Bcl-xL/BAK) was 4.6 µM. For the same compound, the Ki [10] was 9.1 µM and the Activity (BL2) was “Active”.
Compound CC(C)=CCC[C@H](C)[C@@H]1C=C[C@]2(C(=O)O)[C@@H](CC(C)=C[C@H]2/C=C(\C)c2ccc(C(=O)O)cc2)C1 has an IC50 [1] of over 20 µM, an IC50 [2] of over 20 µM and an IC50 [3] of over 20 µM. The Ki (Bcl-xL/BAK) was 7.5 µM and the Ki [10] was 15.9 µM.
With CC(C)=CCC[C@@H](C)[C@@H]1C=C[C@]2(C(=O)O)[C@@H](CC(C)=C[C@H]2/C=C(\C)[C@H]2CC[C@H](C(=O)O)CC2)C1 the IC50 [1] was over 20 µM, the IC50 [2] was over 20 µM and the IC50 [3] was over 20 µM.
Compound CC(C)=CCC[C@@H](C)[C@H]1C=C[C@@]2(C(=O)O)[C@H](CC(C)=C[C@@H]2/C=C(\C)[C@H]2CC[C@H](C(=O)O)CC2)C1 has an IC50 [1] of over 20 µM, an IC50 [2] of over 20 µM and an IC50 [3] of over 20 µM.
